Tests used:
Experiment in all cases: KINOMEscan
Assay type in all cases: binding
Conditions in all cases: read-out: % control activity remaining
[1] = target: T1, ABL1(F317L)-phosphorylated (Homo sapiens, UniProt P00519, F317L)
T1 construct: purchased Eurofins DiscoverX KINOMEscan

ABL1-nonphosphorylated = target: T2, ABL1-nonphosphorylated (Homo sapiens, UniProt P00519)
T2 construct: purchased Eurofins DiscoverX KINOMEscan

ASK1 = target: T3, ASK1 (Homo sapiens, UniProt Q99683)
T3 construct: purchased Eurofins DiscoverX KINOMEscan
T3 sequence (Q99683 1-1374): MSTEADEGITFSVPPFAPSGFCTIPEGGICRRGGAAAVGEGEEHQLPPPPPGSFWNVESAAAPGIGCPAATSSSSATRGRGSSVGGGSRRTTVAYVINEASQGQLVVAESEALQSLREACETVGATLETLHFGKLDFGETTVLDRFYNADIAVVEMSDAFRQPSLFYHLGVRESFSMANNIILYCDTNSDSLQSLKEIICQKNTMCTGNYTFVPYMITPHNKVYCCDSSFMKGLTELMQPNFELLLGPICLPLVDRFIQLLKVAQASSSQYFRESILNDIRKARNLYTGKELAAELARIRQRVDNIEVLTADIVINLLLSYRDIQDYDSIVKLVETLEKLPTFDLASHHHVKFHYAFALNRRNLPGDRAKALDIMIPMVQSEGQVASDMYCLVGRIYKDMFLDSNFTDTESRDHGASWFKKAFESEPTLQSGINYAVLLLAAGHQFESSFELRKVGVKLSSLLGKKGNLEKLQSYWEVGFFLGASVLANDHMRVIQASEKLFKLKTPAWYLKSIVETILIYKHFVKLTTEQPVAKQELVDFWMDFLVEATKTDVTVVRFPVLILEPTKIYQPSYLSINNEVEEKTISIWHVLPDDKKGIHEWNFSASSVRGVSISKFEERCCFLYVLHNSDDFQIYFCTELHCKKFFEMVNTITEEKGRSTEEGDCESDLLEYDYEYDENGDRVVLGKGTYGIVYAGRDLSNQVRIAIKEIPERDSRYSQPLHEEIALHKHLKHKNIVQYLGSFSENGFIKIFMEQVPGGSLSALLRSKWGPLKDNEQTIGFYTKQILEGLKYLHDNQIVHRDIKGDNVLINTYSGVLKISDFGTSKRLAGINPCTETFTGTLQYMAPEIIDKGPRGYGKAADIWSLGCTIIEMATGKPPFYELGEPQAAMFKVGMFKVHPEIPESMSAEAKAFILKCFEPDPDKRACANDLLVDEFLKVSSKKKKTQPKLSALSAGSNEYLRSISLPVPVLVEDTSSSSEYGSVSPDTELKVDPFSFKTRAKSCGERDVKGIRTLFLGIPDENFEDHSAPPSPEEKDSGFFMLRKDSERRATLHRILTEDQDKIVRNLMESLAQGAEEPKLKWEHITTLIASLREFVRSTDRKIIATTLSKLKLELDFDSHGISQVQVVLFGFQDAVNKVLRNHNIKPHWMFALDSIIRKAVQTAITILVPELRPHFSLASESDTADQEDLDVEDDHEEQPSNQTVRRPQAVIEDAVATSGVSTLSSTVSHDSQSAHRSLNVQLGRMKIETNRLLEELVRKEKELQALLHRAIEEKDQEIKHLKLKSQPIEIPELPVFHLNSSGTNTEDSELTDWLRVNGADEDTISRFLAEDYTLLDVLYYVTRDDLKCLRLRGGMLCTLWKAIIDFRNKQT

CSNK2A2 = target: T4, CSNK2A2 (Homo sapiens, UniProt P19784)
T4 construct: purchased Eurofins DiscoverX KINOMEscan

MEK4 = target: T5, MEK4 (Homo sapiens, UniProt P45985)
T5 construct: purchased Eurofins DiscoverX KINOMEscan
T5 sequence (P45985 1-399): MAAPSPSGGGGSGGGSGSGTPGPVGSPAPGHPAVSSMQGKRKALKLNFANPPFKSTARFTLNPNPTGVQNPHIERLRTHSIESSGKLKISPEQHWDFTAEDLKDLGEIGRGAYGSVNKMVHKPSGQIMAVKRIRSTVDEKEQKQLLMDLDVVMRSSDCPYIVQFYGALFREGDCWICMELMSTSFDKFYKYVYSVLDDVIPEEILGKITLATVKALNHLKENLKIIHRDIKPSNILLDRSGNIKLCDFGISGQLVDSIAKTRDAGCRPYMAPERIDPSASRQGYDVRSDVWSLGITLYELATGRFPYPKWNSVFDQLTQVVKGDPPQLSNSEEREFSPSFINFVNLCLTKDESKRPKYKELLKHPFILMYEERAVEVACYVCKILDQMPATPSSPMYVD

PDGFRA = target: T6, PDGFRA (Homo sapiens, UniProt P16234)
T6 construct: purchased Eurofins DiscoverX KINOMEscan

RIPK2 = target: T7, RIPK2 (Homo sapiens, UniProt O43353)
T7 construct: purchased Eurofins DiscoverX KINOMEscan

TYRO3 = target: T8, TYRO3 (Homo sapiens, UniProt Q06418)
T8 construct: purchased Eurofins DiscoverX KINOMEscan
T8 sequence (Q06418 41-890): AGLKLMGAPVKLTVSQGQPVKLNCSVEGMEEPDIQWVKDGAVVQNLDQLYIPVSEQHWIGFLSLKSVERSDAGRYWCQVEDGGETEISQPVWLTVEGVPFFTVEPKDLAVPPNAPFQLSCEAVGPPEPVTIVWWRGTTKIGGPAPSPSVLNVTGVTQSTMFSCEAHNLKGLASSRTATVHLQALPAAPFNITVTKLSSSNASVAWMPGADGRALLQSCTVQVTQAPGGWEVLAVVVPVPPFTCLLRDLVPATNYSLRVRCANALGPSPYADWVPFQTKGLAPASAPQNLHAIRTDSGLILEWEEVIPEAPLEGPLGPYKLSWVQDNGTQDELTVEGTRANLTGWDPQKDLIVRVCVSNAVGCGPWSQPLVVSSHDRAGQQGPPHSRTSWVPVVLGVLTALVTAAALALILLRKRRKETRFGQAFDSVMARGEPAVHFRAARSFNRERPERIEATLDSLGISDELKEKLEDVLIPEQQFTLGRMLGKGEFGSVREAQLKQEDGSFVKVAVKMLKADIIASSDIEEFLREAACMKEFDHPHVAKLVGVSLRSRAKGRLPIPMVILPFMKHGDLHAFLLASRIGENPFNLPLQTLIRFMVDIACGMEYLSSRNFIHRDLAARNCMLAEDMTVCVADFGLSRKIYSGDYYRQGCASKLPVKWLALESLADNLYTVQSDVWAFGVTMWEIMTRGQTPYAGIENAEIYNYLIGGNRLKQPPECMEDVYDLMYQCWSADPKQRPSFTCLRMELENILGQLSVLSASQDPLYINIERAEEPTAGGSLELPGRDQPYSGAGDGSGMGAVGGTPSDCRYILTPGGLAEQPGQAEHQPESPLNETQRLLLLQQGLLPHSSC

T2 sequence (P00519 whole entry): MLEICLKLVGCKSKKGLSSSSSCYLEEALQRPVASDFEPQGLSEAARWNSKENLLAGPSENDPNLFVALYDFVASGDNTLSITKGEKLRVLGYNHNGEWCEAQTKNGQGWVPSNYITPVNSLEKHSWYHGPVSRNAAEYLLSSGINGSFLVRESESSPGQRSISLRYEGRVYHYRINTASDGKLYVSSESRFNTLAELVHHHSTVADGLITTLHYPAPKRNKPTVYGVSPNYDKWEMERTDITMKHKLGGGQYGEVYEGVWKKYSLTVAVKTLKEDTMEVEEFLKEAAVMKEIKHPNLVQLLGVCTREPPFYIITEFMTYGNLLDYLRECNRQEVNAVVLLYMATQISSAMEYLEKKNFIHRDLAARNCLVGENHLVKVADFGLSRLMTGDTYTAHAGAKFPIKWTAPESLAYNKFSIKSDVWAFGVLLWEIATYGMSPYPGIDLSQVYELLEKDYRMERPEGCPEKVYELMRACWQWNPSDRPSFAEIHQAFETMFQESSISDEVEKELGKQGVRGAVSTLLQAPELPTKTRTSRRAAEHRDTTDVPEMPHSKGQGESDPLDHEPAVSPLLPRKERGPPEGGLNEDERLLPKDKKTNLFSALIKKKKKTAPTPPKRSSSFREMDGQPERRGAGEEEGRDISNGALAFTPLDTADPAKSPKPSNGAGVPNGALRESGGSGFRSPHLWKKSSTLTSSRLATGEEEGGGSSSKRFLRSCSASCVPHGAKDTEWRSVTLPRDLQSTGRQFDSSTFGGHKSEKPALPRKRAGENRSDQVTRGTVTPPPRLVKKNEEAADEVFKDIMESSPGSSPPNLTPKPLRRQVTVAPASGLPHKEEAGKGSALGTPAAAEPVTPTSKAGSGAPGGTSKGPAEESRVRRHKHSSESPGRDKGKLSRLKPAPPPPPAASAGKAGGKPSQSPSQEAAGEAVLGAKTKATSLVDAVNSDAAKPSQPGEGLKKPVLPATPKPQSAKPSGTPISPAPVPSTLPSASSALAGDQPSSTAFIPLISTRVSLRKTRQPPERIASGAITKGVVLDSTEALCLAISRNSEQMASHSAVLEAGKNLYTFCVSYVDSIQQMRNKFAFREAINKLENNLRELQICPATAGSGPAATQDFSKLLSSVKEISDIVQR
T6 sequence (P16234 24-1089): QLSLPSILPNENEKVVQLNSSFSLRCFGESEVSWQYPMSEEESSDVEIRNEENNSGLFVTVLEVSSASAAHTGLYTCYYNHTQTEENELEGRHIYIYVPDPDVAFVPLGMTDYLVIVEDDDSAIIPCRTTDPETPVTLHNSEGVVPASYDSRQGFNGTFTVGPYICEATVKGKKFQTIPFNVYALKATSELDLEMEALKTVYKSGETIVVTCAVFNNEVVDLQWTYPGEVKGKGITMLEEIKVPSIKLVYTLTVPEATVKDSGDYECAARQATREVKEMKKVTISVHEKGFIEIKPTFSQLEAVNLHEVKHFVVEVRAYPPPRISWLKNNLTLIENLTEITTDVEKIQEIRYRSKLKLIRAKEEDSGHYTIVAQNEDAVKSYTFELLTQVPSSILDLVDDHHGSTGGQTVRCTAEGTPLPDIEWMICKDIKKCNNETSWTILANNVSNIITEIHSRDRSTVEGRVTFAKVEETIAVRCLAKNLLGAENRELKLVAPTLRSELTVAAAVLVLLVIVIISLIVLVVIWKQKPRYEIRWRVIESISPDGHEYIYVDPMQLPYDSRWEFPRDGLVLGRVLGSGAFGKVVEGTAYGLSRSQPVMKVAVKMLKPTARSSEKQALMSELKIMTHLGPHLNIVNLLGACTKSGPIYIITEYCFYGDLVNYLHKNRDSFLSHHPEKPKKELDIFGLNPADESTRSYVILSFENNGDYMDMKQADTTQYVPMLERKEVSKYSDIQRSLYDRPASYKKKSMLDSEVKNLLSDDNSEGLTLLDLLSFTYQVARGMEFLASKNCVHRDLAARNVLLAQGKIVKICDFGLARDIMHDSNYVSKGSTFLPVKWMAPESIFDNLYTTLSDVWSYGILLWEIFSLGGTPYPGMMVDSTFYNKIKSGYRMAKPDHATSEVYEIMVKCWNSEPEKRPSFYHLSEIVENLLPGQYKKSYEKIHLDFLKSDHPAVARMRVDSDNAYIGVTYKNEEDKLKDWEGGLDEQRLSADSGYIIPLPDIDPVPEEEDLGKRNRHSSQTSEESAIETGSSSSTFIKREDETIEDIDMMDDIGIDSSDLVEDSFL
T7 sequence (O43353 whole entry): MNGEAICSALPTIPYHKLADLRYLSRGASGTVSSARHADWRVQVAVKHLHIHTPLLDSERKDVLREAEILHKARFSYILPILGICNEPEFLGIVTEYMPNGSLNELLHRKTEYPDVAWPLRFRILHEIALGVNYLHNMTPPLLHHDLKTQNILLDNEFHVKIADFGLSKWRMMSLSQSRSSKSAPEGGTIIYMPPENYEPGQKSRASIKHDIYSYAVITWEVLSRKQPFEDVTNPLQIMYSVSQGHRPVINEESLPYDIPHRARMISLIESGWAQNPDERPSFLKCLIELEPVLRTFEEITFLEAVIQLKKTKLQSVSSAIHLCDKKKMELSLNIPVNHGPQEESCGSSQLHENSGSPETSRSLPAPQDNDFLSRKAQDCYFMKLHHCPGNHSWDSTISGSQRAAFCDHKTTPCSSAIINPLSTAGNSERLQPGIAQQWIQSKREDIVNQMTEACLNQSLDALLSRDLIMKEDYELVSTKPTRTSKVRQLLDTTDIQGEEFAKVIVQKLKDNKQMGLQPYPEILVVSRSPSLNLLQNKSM
T4 sequence (P19784 whole entry): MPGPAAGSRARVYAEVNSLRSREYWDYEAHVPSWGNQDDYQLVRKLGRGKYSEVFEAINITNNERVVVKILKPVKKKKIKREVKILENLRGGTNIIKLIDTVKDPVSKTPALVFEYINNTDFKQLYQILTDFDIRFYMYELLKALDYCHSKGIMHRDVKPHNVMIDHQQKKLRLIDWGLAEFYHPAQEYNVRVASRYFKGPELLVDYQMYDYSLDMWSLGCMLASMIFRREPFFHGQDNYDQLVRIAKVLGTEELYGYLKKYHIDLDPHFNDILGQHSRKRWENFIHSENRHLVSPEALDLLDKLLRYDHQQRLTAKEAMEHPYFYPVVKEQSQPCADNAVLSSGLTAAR
T1 sequence (P00519 whole entry F317L): as the sequence (P00519 whole entry) above, with F317L counted along it

## Clc1cc(NCC2CC2)c2ncc(-c3ccc4[nH]ncc4c3)n2n1 [compound 2, 6-Chloro-N-(cyclopropylmethyl)-3-(1H-indazol-5-yl)imidazo[1,2-b]pyridazin-8-amine]
[1]
  remaining binding at 1 µM: 60%
ABL1-nonphosphorylated
  remaining binding at 1 µM: 76%
ASK1
  remaining binding at 1 µM: 70%
CSNK2A2
  remaining binding at 1 µM: 94%
MEK4
  remaining binding at 1 µM: 75%
PDGFRA
  remaining binding at 1 µM: 12%
RIPK2
  remaining binding at 1 µM: 88%
TYRO3
  remaining binding at 1 µM: 69%

## O=C(CN1CCOCC1)N[C@H]1CC[C@H](Nc2cc(Cl)nn3c(-c4ccc5[nH]ncc5c4)cnc23)CC1 [compound 26]
[1]
  remaining binding at 1 µM: 6.2%
ABL1-nonphosphorylated
  remaining binding at 1 µM: 44%
ASK1
  remaining binding at 1 µM: 100%
CSNK2A2
  remaining binding at 1 µM: 100%
MEK4
  remaining binding at 1 µM: 100%
PDGFRA
  remaining binding at 1 µM: 0.3%
RIPK2
  remaining binding at 1 µM: 61%
TYRO3
  remaining binding at 1 µM: 86%

## CN1CCC(CNc2cc(Cl)nn3c(-c4cc5nc(Nc6ccccc6)[nH]c5cc4F)cnc23)CC1 [compound 31, 6-Chloro-3-(6-fluoro-2-(phenylamino)-1H-benzo[d]imidazol-5-yl)-N-((1-methylpiperidin-4-yl)methyl)imidazo[1,2-b]pyridazin-8-amine]
[1]
  remaining binding at 1 µM: 73%
ABL1-nonphosphorylated
  remaining binding at 1 µM: 58%
ASK1
  remaining binding at 1 µM: 100%
CSNK2A2
  remaining binding at 1 µM: 100%
MEK4
  remaining binding at 1 µM: 100%
PDGFRA
  remaining binding at 1 µM: 94%
RIPK2
  remaining binding at 1 µM: 100%
TYRO3
  remaining binding at 1 µM: 99%

— publication PMC6437697 (Journal of Medicinal Chemistry, 2019)
